In general, EC50 refers to the concentration that produces a half-maximal response. Lower therefore signals greater potency.

One experiment concerns RBC urea transport.
Assay: not given
The settings on record: 23° C.; cited from earlier work.
On to `NC(N)=O` [urea], for which the apparent affinity result is listed as “approximately 200 mM”.

Consider `CNC(N)=O` [N-methylurea], for which the apparent affinity result was “approximately 100 mM”.

For another experiment, the target named is T1, UT-B (Homo sapiens, UniProt Q13336).
T1 sequence (Q13336 1-389): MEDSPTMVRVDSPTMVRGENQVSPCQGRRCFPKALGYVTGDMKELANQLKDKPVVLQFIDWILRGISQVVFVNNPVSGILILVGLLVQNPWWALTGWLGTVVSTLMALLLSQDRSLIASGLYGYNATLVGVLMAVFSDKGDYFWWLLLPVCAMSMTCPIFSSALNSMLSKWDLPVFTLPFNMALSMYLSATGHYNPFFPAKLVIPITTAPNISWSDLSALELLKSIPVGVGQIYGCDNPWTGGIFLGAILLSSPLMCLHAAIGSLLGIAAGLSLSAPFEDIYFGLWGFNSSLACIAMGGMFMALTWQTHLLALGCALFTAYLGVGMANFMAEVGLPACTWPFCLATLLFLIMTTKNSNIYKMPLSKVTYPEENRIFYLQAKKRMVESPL
The experiment can be described thus: RBC lysis assay (human RBCs, acetamide-loaded).
Details: not given
Compound `Cc1ccc(S(=O)(=O)c2nc(-c3ccccc3)[nH]c2S)cc1` [ureainh-131, 2-phenyl-4-tosyl-1H-imidazole-5-thiol] displayed an EC50 of 6000 nM.

`Cc1ccc(-c2nc(S(=O)(=O)c3ccc(C)cc3)c(SCC(N)=O)o2)cc1` [ureainh-110, 2-(2-p-tolyl-4-tosyloxazol-5-ylthio)acetamide]: the EC50 stood at 1000 nM.

On to `O=C(CSc1oc(-c2ccccc2)nc1S(=O)(=O)c1ccc(Br)cc1)NCc1ccco1` [ureainh-121, 2-(4-(4-bromophenylsulfonyl)-2-phenyloxazol-5-ylthio)-N-(furan-2-ylmethyl)acetamide], for which the EC50 came out at 4000 nM.

The compound `Cc1ccc(-c2nc(S(=O)(=O)c3ccc(Cl)cc3)c(SCC(N)=O)o2)cc1` [ureainh-111, 2-(4-(4-chlorophenylsulfonyl)-2-p-tolyloxazol-5-ylthio)acetamide] registered an EC50 of 1000 nM.

As to `NC(=O)CSc1oc(-c2ccccc2)nc1S(=O)(=O)c1ccc(Cl)cc1` [ureainh-102, 2-(4-(4-chlorophenylsulfonyl)-2-phenyloxazol-5-ylthio)acetamide], the midpoint of the response, the EC50, lay at 40 nM.

In turn, `NC(=O)CSc1oc(-c2ccco2)nc1S(=O)(=O)c1ccc(Cl)cc1` [ureainh-117, 2-(4-(4-chlorophenylsulfonyl)-2-(furan-2-yl)oxazol-5-ylthio)acetamide] had an EC50 of 100 nM.

The compound `O=C(Sc1[nH]c(-c2ccccc2)nc1S(=O)(=O)c1ccccc1)c1ccccc1` [ureainh-132, S-2-phenyl-4-(phenylsulfonyl)-1H-imidazol-5-yl benzothioate] registered an EC50 of 7000 nM.

In turn, `O=S(=O)(c1ccccc1)c1nc(-c2ccc(F)cc2)oc1N1CCCCCC1` [ureainh-128, 5-(azepan-1-yl)-2-(4-fluorophenyl)-4-(phenylsulfonyl)oxazole] returned an EC50 of 10000 nM.

With `Cc1ccc(S(=O)(=O)c2nc(-c3ccccc3Cl)oc2N2CCOCC2)cc1` [ureainh-125, 4-(2-(2-chlorophenyl)-4-tosyloxazol-5-yl)morpholine], the EC50 is 11000 nM.

`NC(=O)CSc1oc(-c2ccco2)nc1S(=O)(=O)c1ccc(Br)cc1` [ureainh-118, 2-(4-(4-bromophenylsulfonyl)-2-(furan-2-yl)oxazol-5-ylthio)acetamide] yielded an EC50 of 200 nM. This EC50 is about 55-fold lower than that of the compound before.

For the compound `Cc1ccc(S(=O)(=O)c2nc(-c3cccs3)oc2SCC(N)=O)cc1` [ureainh-114, 2-(2-(thiophen-2-yl)-4-tosyloxazol-5-ylthio)acetamide], the EC50 is 500 nM.

`Cc1ccc(-c2nc(S(=O)(=O)c3ccc(Br)cc3)c(SCC(N)=O)o2)cc1` [ureainh-109, 2-(4-(4-bromophenylsulfonyl)-2-p-tolyloxazol-5-ylthio)acetamide] had an EC50 of 200 nM.

`Cc1ccc(S(=O)(=O)c2nc(-c3ccc(F)cc3)oc2SCC(N)=O)cc1` [ureainh-105, 2-(2-(4-fluorophenyl)-4-tosyloxazol-5-ylthio)acetamide] came in with an EC50 of 100 nM.

In the case of `COc1ccccc1-c1nc(S(=O)(=O)c2ccccc2)c(N2CCCCCC2)o1` [ureainh-126, 5-(azepan-1-yl)-2-(2-methoxyphenyl)-4-(phenylsulfonyl)oxazole], the EC50 was 10000 nM.

`Cc1ccc(S(=O)(=O)c2nc(-c3ccco3)oc2SCC(N)=O)cc1` [ureainh-119, 2-(2-(furan-2-yl)-4-tosyloxazol-5-ylthio)acetamide]: the EC50 is 1000 nM.

In turn, `NC(=O)CSc1oc(-c2ccccc2)nc1S(=O)(=O)c1ccccc1` [ureainh-104, 2-(2-phenyl-4-(phenylsulfonyl)oxazol-5-ylthio)acetamide] showed an EC50 of 1000 nM.

`NC(=O)CSc1oc(-c2cccs2)nc1S(=O)(=O)c1ccc(Cl)cc1` [ureainh-113, 2-(4-(4-chlorophenylsulfonyl)-2-(thiophen-2-yl)oxazol-5-ylthio)acetamide] displayed an EC50 of 20 nM.

Compound `NC(=O)CSc1oc(-c2ccc(F)cc2)nc1S(=O)(=O)c1ccc(F)cc1` [ureainh-107, 2-(2-(4-fluorophenyl)-4-(4-fluorophenylsulfonyl)oxazol-5-ylthio)acetamide] showed an EC50 of 6000 nM.

`Cc1ccc(-c2nc(S(=O)(=O)c3ccccc3)c(N3CCCCCC3)o2)cc1` [ureainh-127, 5-(azepan-1-yl)-4-(phenylsulfonyl)-2-p-tolyloxazole] gave an EC50 of 10000 nM.

In turn, `O=C(CSc1oc(-c2ccccc2)nc1S(=O)(=O)c1ccc(Cl)cc1)NCc1ccco1` [ureainh-122, 2-(4-(4-chlorophenylsulfonyl)-2-phenyloxazol-5-ylthio)-N-(furan-2-ylmethyl)acetamide] came in with an EC50 of 15000 nM.

For the compound `Cc1ccc(S(=O)(=O)c2nc(-c3ccccc3)oc2SCC(N)=O)cc1` [ureainh-103, 2-(2-phenyl-4-tosyloxazol-5-ylthio)acetamide], the EC50 is 100 nM.

In the case of `Cc1ccc(-c2nc(S(=O)(=O)c3ccccc3)c(SCC(N)=O)o2)cc1` [ureainh-112, 2-(4-(phenylsulfonyl)-2-p-tolyloxazol-5-ylthio)acetamide], the midpoint of the response, the EC50, lay at 15000 nM.

Turning to `NC(=O)CSc1oc(-c2ccc(F)cc2)nc1S(=O)(=O)c1ccc(Cl)cc1` [ureainh-106, 2-(4-(4-chlorophenylsulfonyl)-2-(4-fluorophenyl)oxazol-5-ylthio)acetamide], the EC50 is 200 nM.

Compound `CSc1[nH]c(-c2ccc(C)cc2)nc1S(=O)(=O)c1ccccc1` [ureainh-130, 5-(methylthio)-4-(phenylsulfonyl)-2-p-tolyl-1H-imidazole] came in with an EC50 of 2000 nM.

Take `O=S(=O)(c1ccc(Cl)cc1)c1nc(-c2ccccc2F)oc1NCc1ccccc1` [ureainh-120, N-benzyl-4-(4-chlorophenylsulfonyl)-2-(2-fluorophenyl)oxazol-5-amine]: the EC50 was 1000 nM. This EC50 is about 2-fold lower than that of the compound before.

Compound `NC(=O)CSc1oc(-c2ccc(F)cc2)nc1S(=O)(=O)c1ccccc1` [ureainh-108, 2-(2-(4-fluorophenyl)-4-(phenylsulfonyl)oxazol-5-ylthio)acetamide] came in with an EC50 of 15000 nM.

With `CSc1oc(-c2ccco2)nc1S(=O)(=O)c1ccc(Cl)cc1` [ureainh-129, 4-(4-chlorophenylsulfonyl)-2-(furan-2-yl)-5-(methylthio)oxazole], it took 20000 nM to reach a half-maximal effect (EC50).

`NC(=O)CSc1oc(-c2cccs2)nc1S(=O)(=O)c1ccccc1` [ureainh-116, 2-(4-(phenylsulfonyl)-2-(thiophen-2-yl)oxazol-5-ylthio)acetamide] came in with an EC50 of 1000 nM.

As for `NC(=O)CSc1oc(-c2cccs2)nc1S(=O)(=O)c1ccc(F)cc1` [ureainh-115, 2-(4-(4-fluorophenylsulfonyl)-2-(thiophen-2-yl)oxazol-5-ylthio)acetamide], the EC50 was determined as 600 nM.

`CN(C)c1oc(-c2ccccc2Cl)nc1S(=O)(=O)c1ccccc1` [ureainh-123, 2-(2-chlorophenyl)-N,N-dimethyl-4-(phenylsulfonyl)oxazol-5-amine] came in with an EC50 of 5000 nM.

In the case of `O=S(=O)(c1ccccc1)c1nc(-c2ccccc2F)oc1N1CCOCC1` [ureainh-124, 4-(2-(2-fluorophenyl)-4-(phenylsulfonyl)oxazol-5-yl)morpholine], the EC50 came to 7000 nM.

(Values after patent US8394788B2, “Phenylsulfoxyoxazole compound inhibitors of urea transporters” (The Regents of the University of California, priority 2006, dated 2013).)
